Results taken from patent US10059741B2 (priority 2015, dated 2018).
Values joined by “and” are separate entries in the source; they are usually repeats but may differ in a detail not shown here. Identical values can stand only once. Like-named read-outs stand apart in the source and are kept apart here. Bridge positions count the residues as written; N and C are the ends. Square brackets hold non-standard residues; d marks the D form. Peptide text beside a SMILES is read from it. S5 = C=CCCC[C@](C)(N)C(=O)O; Nle = CCCC[C@H](N)C(=O)O; Aib = CC(C)(N)C(=O)O

Experiments:
in vitro = conditions: dog
[1] = test system: H1N1 A/Solomon Island/03/2006; format: cell-based, influenza A virus
[2] = test system: Influenza B/Brisbane/60/2008; experiment: microbe, parasite or virus in culture; format: cell-based
[3] = Plasma PK in a cyno monkey, single subcutaneous dose
H7N9 A/Anhui/1/2013 = experiment: microbe, parasite or virus in culture; format: cell-based, influenza A virus
[4] = test system: Influenza B Brisbane/60/2008; experiment: Cytopathic effect (CPE) inhibition in MDCK cells, neutral red; format: cell-based
[5] = test system: Influenza B Florida/04/2006; experiment: as above; format: cell-based
H3N2 Perth/16/2009 [6] = experiment: microbe, parasite or virus in culture; format: cell-based, influenza A virus
[7] = test system: Influenza A H3N2 Influenza A/Brisbane/10/2007; experiment: microbe, parasite or virus in culture; format: cell-based, influenza A virus; conditions: for EC50: read-out: EC50; for EC90: read-out: EC90
H1N1 California/07/2009 [8] = experiment: microbe, parasite or virus in culture; format: cell-based, influenza A virus; conditions: for EC90: read-out: EC90
[9] = test system: H5N1 A/Hong Kong/213/2003; experiment: microbe, parasite or virus in culture; format: cell-based, influenza A virus
[10] = test system: Influenza A H1N1 Influenza A/Texas/4/2009; experiment: microbe, parasite or virus in culture; format: cell-based, influenza A virus; conditions: for EC50: read-out: EC50; for EC90: read-out: EC90
[11] = test system: Influenza A H1N1 Influenza A/California/7/2009; experiment: microbe, parasite or virus in culture; format: cell-based, influenza A virus; conditions: for EC50: read-out: EC50; for EC90: read-out: EC90
[12] = test system: influenza virus, various viral strains; format: cell-based
H5N1 A/Duck/MN/1525/81 = experiment: microbe, parasite or virus in culture; format: cell-based, influenza A virus; conditions: read-out: EC50
H1N1 A/PR/8/34 = conditions: read-out: EC50 (μM), Cytopathic effect by Neutral Red
H1N1 A/Brisbane/59/2007 = experiment: Cytopathic effect (CPE) inhibition in MDCK cells, neutral red; format: cell-based, influenza A virus
[13] = test system: influenza virus, various viral strains; experiment: Influenza antiviral evaluation assay (CPE, neutral red dye uptake) in MDCK cells against various viral strains (Tables 8, 9); format: cell-based
H3N2 Perth/16/2009 [14] = experiment: microbe, parasite or virus in culture; format: cell-based, influenza A virus; remark: listed apart in the source
H1N1 California/07/2009 [15] = experiment: microbe, parasite or virus in culture; format: cell-based, influenza A virus; conditions: read-out: EC50 (μM) H1N1 California/07/2009
[16] = mouse, in vivo
[17] = cynomolgus monkey, sc, 2.25 mg/kg
[18] = read-out: EC50 (μM), Cytopathic effect by Neutral Red
[19] = read-out: EC50 (μM) H3N2 Perth/16/2009

CCCC[C@H](NC(C)=O)C(=O)N[C@@H](CC(=O)O)C(=O)N[C@H](C(=O)N[C@@H](CC(N)=O)C(=O)N[C@@]1(C)CCCC=CCCC[C@@](C)(C(=O)N[C@@H](CC(C)C)C(=O)N[C@@H](CCCCN)C(=O)N[C@H](C(=O)NC(C)(C)C(=O)N[C@@H](C)C(=O)N[C@@H](CCC(N)=O)C(N)=O)C(C)C)NC(=O)[C@H](CC(C)C)NC(=O)[C@H](CC(C)C)NC(=O)[C@H]([C@@H](C)O)NC1=O)C(C)C [AP1, Ac-NleDVN$TLL$LKVAibAQ-NH2] (Ac-[Nle]DVN[S5]TLL[S5]LKV[Aib]AQ-NH2; staple 5-9)
CC50 (in vitro; CC50): > 100 µM | EC50 ([1]; read-out: EC50): 3 µM and 1.8 µM | EC50 [2]: > 100 µM | EC90 [2]: > 100 µM | time at which drug levels were measureable (last time point assessed) ([3]; cyno monkey, single subcutaneous dose 2.25 mg/kg): 96 h | MRT [3, 17]: 21 h | half-life [3, 17]: 13 h | EC50 (H7N9 A/Anhui/1/2013; read-out: EC50): > 100 µM | EC50 ([4]; read-out: EC50): 6.9 µM | EC50 ([5]; read-out: EC50): 11 µM | EC90 (H3N2 Perth/16/2009 [6]): 28 µM | EC50 (H3N2 Perth/16/2009 [6]; read-out: EC50): 12 µM | EC50 [7]: > 100 µM | EC90 [7]: > 100 µM | EC50 (H1N1 California/07/2009 [8]; read-out: EC50): 28 µM | EC90 (H1N1 California/07/2009 [8]): > 65 µM | EC50 ([9]; read-out: EC50): > 100 µM | EC50 [10]: > 100 µM | EC90 [10]: > 100 µM | EC50 [11]: > 100 µM | EC90 [11]: > 100 µM | EC90 [12]: > 100 µM | EC50 (H5N1 A/Duck/MN/1525/81): 6.3 µM and 6.4 µM

CCCC[C@H](NC(C)=O)C(=O)N[C@@H](CC(=O)O)C(=O)N[C@H](C(=O)N[C@@H](CC(N)=O)C(=O)N[C@@]1(C)CCCC=CCCC[C@@](C)(C(=O)N[C@@H](CC(C)C)C(=O)N[C@@H](C)C(=O)N[C@H](C(=O)NC(C)(C)C(=O)N[C@@H](C)C(=O)N[C@@H](CCC(N)=O)C(N)=O)C(C)C)NC(=O)[C@H](CC(C)C)NC(=O)[C@H](CC(C)C)NC(=O)[C@H]([C@@H](C)O)NC1=O)C(C)C [SP-6] (Ac-[Nle]DVN[S5]TLL[S5]LAV[Aib]AQ-NH2; staple 5-9)
CC50 (in vitro; CC50): > 100 µM | CC50 (in vitro; CC50 (μM) H1N1 California/07/2009, Cell cytotoxicity (CC), run with H1N1 California/07/2009): > 100 µM | CC50 (in vitro; CC50 (μM) H3N2 Perth/16/2009, Cell cytotoxicity (CC), run with H3N2 Perth/16/2009): > 100 µM | CC50 (in vitro; CC50, MDCK cells, run with Influenza A H1N1 Brisbane/59/2007, Neutral Red): > 100 µM | CC50 (in vitro; CC50, MDCK cells, run with Influenza A H1N1 Brisbane/59/2007, Visual): > 100 µM | CC50 (in vitro; CC50, MDCK cells, run with Influenza A H1N1 California/04/2009-M, Neutral Red): > 100 µM | CC50 (in vitro; CC50, MDCK cells, run with Influenza A H1N1 California/04/2009-M, Visual): > 100 µM | CC50 (in vitro; CC50, MDCK cells, run with Influenza A H1N1 California/07/2009, VYR/Neutral Red): > 100 µM | CC50 (in vitro; CC50, MDCK cells, run with Influenza A H1N1 Solomon Is./3/2006-M, Neutral Red): > 100 µM | CC50 (in vitro; CC50, MDCK cells, run with Influenza A H1N1 Solomon Is./3/2006-M, Visual): > 100 µM | CC50 (in vitro; CC50, MDCK cells, run with Influenza A H1N1 Solomon Is./03/2006, Neutral Red): > 100 µM | CC50 (in vitro; CC50, MDCK cells, run with Influenza A H1N1 Solomon Is./03/2006, Visual): > 100 µM | CC50 (in vitro; CC50, MDCK cells, run with Influenza A H3N2 Perth/16/2009, Neutral Red): > 100 µM | CC50 (in vitro; CC50, MDCK cells, run with Influenza A H3N2 Perth/16/2009, VYR/Neutral Red): > 100 µM | CC50 (in vitro; CC50, MDCK cells, run with Influenza A H3N2 Perth/16/2009, Visual): > 100 µM | CC50 (in vitro; CC50, MDCK cells, run with Influenza A H3N2 Victoria/3/75-M, Neutral Red): > 100 µM | CC50 (in vitro; CC50, MDCK cells, run with Influenza A H3N2 Victoria/3/75-M, Visual): > 100 µM | CC50 (in vitro; CC50, MDCK cells, run with Influenza B Brisbane/60/2008, Neutral Red): > 100 µM | CC50 (in vitro; CC50, MDCK cells, run with Influenza B Brisbane/60/2008, Visual): > 100 µM | CC50 (in vitro; CC50, MDCK cells, run with Influenza B Florida/04/2006, Neutral Red): 98 µM | CC50 (in vitro; CC50, MDCK cells, run with Influenza B Florida/04/2006, Visual): > 100 µM | CC50 (in vitro; CC50, MDCK cells, run with Influenza B Sichuan/379/99-M, Neutral Red): > 100 µM | CC50 (in vitro; CC50, MDCK cells, run with Influenza B Sichuan/379/99-M, Visual): > 100 µM | CC50 (in vitro; CC50, run with Influenza A H3N2 Perth/16/2006 (so in the source), Neutral Red): > 100 µM | CC50 (in vitro; CC50, run with Influenza A H3N2 Perth/16/2006 (so in the source), Visual): > 100 µM | EC50 [1, 18]: 1.5 to 10 µM and < 1.5 µM | EC50 [2]: > 100 µM | EC90 [2]: > 100 µM | EC50 (H1N1 A/PR/8/34): 10 to 25 µM | EC50 (H1N1 A/Brisbane/59/2007; read-out: EC50): 5.6 µM and 5.5 µM | EC50 (H1N1 A/Brisbane/59/2007; [18]): 1.5 to 10 µM | EC50 (H7N9 A/Anhui/1/2013; read-out: EC50): > 100 µM | EC50 (H7N9 A/Anhui/1/2013; [18]): > 50 µM | EC50 ([4]; read-out: EC50): 7.1 µM | EC50 [4, 18]: 1.5 to 10 µM | antiviral activity across influenza strains [13]: broad antiviral activity | EC50 ([5]; read-out: EC50): 18 µM | EC50 [5, 18]: 10 to 25 µM | EC50 (H3N2 Perth/16/2009 [14]; [19]): 25 to 50 µM | EC50 (H3N2 Perth/16/2009 [14]; [18]): 1.5 to 10 µM | EC90 (H3N2 Perth/16/2009 [6]): 22 µM | EC50 (H3N2 Perth/16/2009 [6]; [19]): 25 to 50 µM | EC50 [7]: > 100 µM | EC90 [7]: > 100 µM | EC50 (H1N1 California/07/2009 [15]): 10 to 25 µM | EC50 (H1N1 California/07/2009 [8]; read-out: EC50 (μM) H1N1 California/07/2009): 10 to 25 µM | EC90 (H1N1 California/07/2009 [8]): > 36 µM | survival [16]: all mice survived | EC50 ([9]; read-out: EC50): > 100 µM | EC50 [9, 18]: > 50 µM | EC50 [10]: > 100 µM | EC90 [10]: > 100 µM | EC50 [11]: > 100 µM | EC90 [11]: > 100 µM | EC50 [12]: > 100 µM | EC90 [12]: > 100 µM and 66 µM and 65 µM
